Results published in article PMC11971462, “Generation and validation of a novel multitarget small molecule in glioblastoma” (Cell Death & Disease, 2025).

System: GNS166 cells
Assay: Label-free proteomics differential expression
Format: cell-based, human
Experimental: Proteomic studies were performed by the Proteomics Facility of the CIC bioGUNE by label-free relative quantification on nLC MS/MS. […] In both approaches, the top 20 enriched terms were plotted and the pathways were clustered using divisive hierarchical clustering based on pairwise Jaccard distances.

C#CCN(Cc1cc2cc(OCCCN3CCCCC3)ccc2n1S(=O)(=O)c1ccccc1)C(=O)CCCCCCC(=O)NO [DDI]
Direction ANR52_HUMAN (protein Q8NB46): Down
LogFC ANR52_HUMAN (protein Q8NB46): -3.184
Direction TTC13_HUMAN (protein Q8NBP0): Down
LogFC TTC13_HUMAN (protein Q8NBP0): -1.381
LogFC KMT2C_HUMAN (protein Q8NEZ4 GN=KMT2C): 0.407
LogFC PLBL2_HUMAN (protein Q8NHP8 GN=PLBD2): 1.378
LogFC NEDD1_HUMAN (protein Q8NHV4 GN=NEDD1): 0.5958
LogFC SMRC2_HUMAN (protein Q8TAQ2 GN=SMARCC2): -0.7509
LogFC CX038_HUMAN (protein Q8TB03 GN=CXorf38): 1.347
LogFC GDAP1_HUMAN (protein Q8TB36 GN=GDAP1): 1.874
Direction CIP2A_HUMAN (protein Q8TCG1): Down
LogFC CIP2A_HUMAN (protein Q8TCG1): -1.2095
LogFC DDX54_HUMAN (protein Q8TDD1 GN=DDX54): -1.067
Direction DTD1_HUMAN (protein Q8TEA8): Down
LogFC DTD1_HUMAN (protein Q8TEA8): -0.5287
LogFC PPIL4_HUMAN (protein Q8WUA2 GN=PPIL4): -1.325
Direction LMBR1_HUMAN (protein Q8WVP7): Down
LogFC LMBR1_HUMAN (protein Q8WVP7): -0.9571
LogFC FACR1_HUMAN (protein Q8WVX9 GN=FAR1): 0.64
LogFC UBCP1_HUMAN (protein Q8WVY7 GN=UBLCP1): 1.245
Direction ATX2L_HUMAN (protein Q8WWM7): Down
LogFC ATX2L_HUMAN (protein Q8WWM7): -0.7543
Direction PHIP_HUMAN (protein Q8WWQ0): Down
LogFC PHIP_HUMAN (protein Q8WWQ0): -2.692
Direction NELFB_HUMAN (protein Q8WX92): Down
LogFC NELFB_HUMAN (protein Q8WX92): -0.7153
Direction ATLA1_HUMAN (protein Q8WXF7): Down
LogFC ATLA1_HUMAN (protein Q8WXF7): -1.239
Direction CND3_HUMAN (protein Q9BPX3): Down
LogFC CND3_HUMAN (protein Q9BPX3): -1.5744
Direction FSP1_HUMAN (protein Q9BRQ8): Down
LogFC FSP1_HUMAN (protein Q9BRQ8): -0.8531
Direction GCP2_HUMAN (protein Q9BSJ2): Down
LogFC GCP2_HUMAN (protein Q9BSJ2): -1.427
LogFC P4K2A_HUMAN (protein Q9BTU6 GN=PI4K2A): 1.541
LogFC TMM43_HUMAN (protein Q9BTV4 GN=TMEM43): -0.7287
LogFC MKNK1_HUMAN (protein Q9BUB5 GN=MKNK1): 1.242
LogFC TBB2B_HUMAN (protein Q9BVA1 GN=TUBB2B): 1.2351
Direction PBDC1_HUMAN (protein Q9BVG4): Down
LogFC PBDC1_HUMAN (protein Q9BVG4): -0.9108
Direction KIFC1_HUMAN (protein Q9BW19): Down
LogFC KIFC1_HUMAN (protein Q9BW19): -4.377
Direction NADAP_HUMAN (protein Q9BWU0): Down
LogFC NADAP_HUMAN (protein Q9BWU0): -0.9102
Direction LS14B_HUMAN (protein Q9BX40): Down
LogFC LS14B_HUMAN (protein Q9BX40): -1.3017
Direction NUSAP_HUMAN (protein Q9BXS6): Down
LogFC NUSAP_HUMAN (protein Q9BXS6): -2.873
Direction EIF2A_HUMAN (protein Q9BY44): Down
LogFC EIF2A_HUMAN (protein Q9BY44): -0.2917
LogFC PDIP3_HUMAN (protein Q9BY77 GN=POLDIP3): -0.8716
LogFC GNB1L_HUMAN (protein Q9BYB4 GN=GNB1L): 2.567
LogFC PAR6B_HUMAN (protein Q9BYG5 GN=PARD6B): 1.231
LogFC ARL6_HUMAN (protein Q9H0F7 GN=ARL6): 2.762
Direction RGAP1_HUMAN (protein Q9H0H5): Down
LogFC RGAP1_HUMAN (protein Q9H0H5): -3.033
Direction SMG9_HUMAN (protein Q9H0W8): Down
LogFC SMG9_HUMAN (protein Q9H0W8): -1.751
Direction YTDC2_HUMAN (protein Q9H6S0): Down
LogFC YTDC2_HUMAN (protein Q9H6S0): -1.289
LogFC ANKZ1_HUMAN (protein Q9H8Y5 GN=ANKZF1): 2.2814
LogFC EHMT1_HUMAN (protein Q9H9B1 GN=EHMT1): -1.629
Direction EHD4_HUMAN (protein Q9H223): Down
LogFC EHD4_HUMAN (protein Q9H223): -0.4023
LogFC FN3K_HUMAN (protein Q9H479 GN=FN3K): -1.71
Direction HEAT1_HUMAN (protein Q9H583): Down
LogFC HEAT1_HUMAN (protein Q9H583): -0.4862
Direction PHAX_HUMAN (protein Q9H814): Down
LogFC PHAX_HUMAN (protein Q9H814): -0.7063
LogFC NT5D2_HUMAN (protein Q9H857 GN=NT5DC2): 0.9697
Direction ZWILC_HUMAN (protein Q9H900): Down
LogFC ZWILC_HUMAN (protein Q9H900): -1.417
LogFC QTRT2_HUMAN (protein Q9H974 GN=QTRT2): -0.9473
LogFC WDR54_HUMAN (protein Q9H977 GN=WDR54): 2.021
LogFC ARMT1_HUMAN (protein Q9H993 GN=ARMT1): 1.113
LogFC KT3K_HUMAN (protein Q9HA64 GN=FN3KRP): 0.7505
Direction TM165_HUMAN (protein Q9HC07): Down
LogFC TM165_HUMAN (protein Q9HC07): -0.8409
Direction CWC22_HUMAN (protein Q9HCG8): Down
LogFC CWC22_HUMAN (protein Q9HCG8): -0.5601
LogFC VAT1L_HUMAN (protein Q9HCJ6 GN=VAT1L): 1.2681
Direction RM47_HUMAN (protein Q9HD33): Down
LogFC RM47_HUMAN (protein Q9HD33): -0.8741
Direction TM9S3_HUMAN (protein Q9HD45): Down
LogFC TM9S3_HUMAN (protein Q9HD45): -0.5879
Direction HM20A_HUMAN (protein Q9NP66): Down
LogFC HM20A_HUMAN (protein Q9NP66): -1.261
LogFC TNR12_HUMAN (protein Q9NP84 GN=TNFRSF12A): -2.0106
Direction LUC7L_HUMAN (protein Q9NQ29): Down
LogFC LUC7L_HUMAN (protein Q9NQ29): -0.6796
Direction SSF1_HUMAN (protein Q9NQ55): Down
LogFC SSF1_HUMAN (protein Q9NQ55): -1.815
LogFC CL004_HUMAN (protein Q9NQ89 GN=C12orf4): 1.057
LogFC ITM2C_HUMAN (protein Q9NQX7 GN=ITM2C): 1.931
LogFC DBLOH_HUMAN (protein Q9NR28 GN=DIABLO): 1.0021
LogFC DDX21_HUMAN (protein Q9NR30 GN=DDX21): -1.5607
LogFC HEBP1_HUMAN (protein Q9NRV9 GN=HEBP1): 1.384
Direction ABC3C_HUMAN (protein Q9NRW3): Down
LogFC ABC3C_HUMAN (protein Q9NRW3): -0.8611
Direction LANC2_HUMAN (protein Q9NS86): Down
LogFC LANC2_HUMAN (protein Q9NS86): -1.981
LogFC HOME3_HUMAN (protein Q9NSC5 GN=HOMER3): 1.625
Direction F207A_HUMAN (protein Q9NSI2): Down
LogFC F207A_HUMAN (protein Q9NSI2): -1.761
LogFC DIAP3_HUMAN (protein Q9NSV4 GN=DIAPH3): -2.473
Direction SMC4_HUMAN (protein Q9NTJ3): Down
LogFC SMC4_HUMAN (protein Q9NTJ3): -1.4105
Direction TYDP1_HUMAN (protein Q9NUW8): Down
LogFC TYDP1_HUMAN (protein Q9NUW8): -1.1128
Direction FANCI_HUMAN (protein Q9NVI1): Down
LogFC FANCI_HUMAN (protein Q9NVI1): -3.564
Direction EVA1B_HUMAN (protein Q9NVM1): Down
LogFC EVA1B_HUMAN (protein Q9NVM1): -3.511
Direction THG1_HUMAN (protein Q9NWX6): Down
